Source: US20250213560A1, “NITROGEN-CONTAINING HETEROCYCLIC COMPOUNDS HAVING PHENYL GROUP AND USES THEREOF” (BNH RESEARCH CO., LTD., priority 2022, published 2025)

Experiments:
GluN2B = GluN2B protein expression by Western blot in primary cortical neuron cells; format: cell-based, mouse; conditions: for GluN2B expression effect (in words): compared to vehicle / other compounds, Table 5; for Western blot results Mean (GluN2B expression): relative value, vehicle set to 1, primary cortical neurons treated for 24 hours
Description: Meanwhile, primary cortical neuron cells were isolated from cerebral cortices of 18-day-old mouse fetuses, incubated in prep media (composition (mM): NaCl 107.5, NaH2PO4 1, NaHCO333.5, glucose 11, HEPS 1%, penicillin-streptomycin 1%) containing 0.25% trypsin and DNasel for 30 minutes, dissociated into single cells, and seeded. Primary cortical neuron cells were grown in Neurobasal medium supplemented with 1% (v/v) B27, 1% penicillin (100 U/mL), streptomycin ([…]), and 1% Glutamax. Cells were maintained in a humidified atmosphere of 95% air and 5% CO2 at 37° C. Drug efficacy was evaluated after culturing primary cortical neuron cells for 14 days.
The amount of GluN2B reacted with the compound of the present disclosure was measured using Western blot. The fetal cerebral cortex was extracted from mice at 17 days of gestation, dissociated into single cells, cultured for 13 days, and treated with BnH drugs for 24 hours. The drug-treated cells were subjected to protein lysate preparation using RIPA protein lysis buffer containing protease and phosphatase inhibitors. The protein concentration was determined using a BCA protein assay kit (Pierce Biotechnology) using bovine serum albumin as a standard. Equal amounts of protein (20 μg per lane) were separated by electrophoresis on SDS-polyacrylamide gels at 90 V for 2 hours, then transferred from the SDS-polyacrylamide gel to PVDF membrane at 100 V for 1 hour. Then, primary reaction with GluN2B antibody (ab65783, Abcam) was performed at 4° C. for 1 day, washed three times at 10-minutes intervals with 1×PBT, and secondary reaction was performed with anti-mouse antibody (sc-2357, Santa Cruz) for 1 hour, followed by washing three times at 10-minutes intervals with 1×PBT. Western blotting was performed as described above to confirm GluN2B protein expression. Subsequently, each blot was re-probed using anti-β-actin antibody (sc-47778, Santa Cruz). Housekeeping protein B-actin was detected as a normalization control.
The increase and decrease of BnH12 series were confirmed by setting the vehicle to 1 (N for each group was 3 or more).
Using the experimental procedure described in Example 3, it was determined whether various BnH12 series compounds increase GluN2B expression, and the results are shown in Table 5. These in vitro experimental results are expressed as relative values to the group (vehicle) that was not treated with the compound, with the effect of the group set to 1.

293T cells = assay: Cytotoxicity test (CCK-8 cell viability) in 293T cells; format: cell-based, human; conditions: 293T cell line
Description: Human undifferentiated neuroblastoma cell line SH-SY5Y and human embryonic kidney cell line (HEK)-293T were purchased from Korean Cell Line Bank (Korea) and Takara (Japan), respectively. Cells were grown in HyClone Minimal Essential Medium (MEM) and Dulbecco's Modified Eagle Medium (DMEM), respectively, supplemented with 10% (v/v) fetal bovine serum (FBS), penicillin (100 U/mL), and streptomycin ([…]). Cells were maintained in a humidified atmosphere of 95% air and 5% CO2 at 37° C. Cells were passaged 10 times at maximum. Cells were dissociated using 0.05% trypsin-EDTA solution and the cells were seeded in new culture dishes for maintenance.
To examine the cytotoxicity of compounds described herein in human cell lines, SH-SY5Y and 293T cells were used. Approximately 8,000 cells (for 293T) and 15,000 cells (for SH-SY5Y) were plated per well of a 96-well plate (SPL Life Sciences Co., Ltd., Pocheon, Korea). After incubating at 37° C. for 24 hours in a humidified atmosphere containing 5% CO2, the culture medium was replaced by a series of concentrations of test compounds diluted in the corresponding culture medium.
The time of co-incubation was 24 hours and six replicates were made for each measurement. Finally, 10 μL of CCK-8 reagent (Dojindo Laboratories, Rockville, MD) was added to each well, and after incubation at 37° C. for 3 minutes, the OD at 450 nm was measured using a multifunction microplate reader (Tecan Infinite M200 Pro). These measurements were compared to that of a control and expressed as a percentage of the control to calculate cell viability. The IC50 value was calculated using SPSS software. To do this, the absorbance of the blank wells with only growth medium is subtracted from the values or the wells with cells. The readout value of background (vehicle) was set as a 100% viability, and then the percent viability for each test solution was calculated.
The data was presented as the mean value and standard error of the mean (S.E.M.). Statistical analysis was performed with the one-way ANOVA with Tukey's post hoc test (GraphPad Prism 5 software package, version 5.02, GraphPad Software Inc. USA). Significance was accepted at p<0.05.
The cytotoxicity of the compound was evaluated by treating cells with BnH12003 and measuring cell viability.
By treating cells with various BnH12 series compounds and measuring cell viability using the experimental procedure described in Example 2, the cytotoxicity of the compounds was evaluated.

Row | Compound | GluN2B expression effect (in words) (GluN2B) | Western blot results Mean (GluN2B expression) (GluN2B) | Cell viability test results (CCK) 10 uM (293T cells) [%<] | Cell viability test results (CCK) 100 uM (293T cells) [%<]
1 | 6-Ethyl-1-(2-(4-(pyrimidin-5-yl)phenyl) acetyl) piperidine-3-carboxylic acid [BnH12097] | excellent effects | 2.625 | 90 | 85
2 | O=C(NO)[C@@H]1CCCN1C(=O)Cc1ccc(-c2cncnc2)cc1 [BnH12017, (S)-N-hydroxy-1-(2-(4-(pyrimidin-5-yl)phenyl)acetyl)pyrrolidine-2-carboxamide] | – | 1.448 | 95 | 80
3 | C[C@H]1CC[C@@H](C(=O)O)CN1C(=O)Cc1ccc(-c2ccnnc2)cc1 [BnH12045, (3R,6S)-6-methyl-1-(2-(4-(pyridazin-4-yl)phenyl)acetyl) piperidine-3-carboxylic acid] | – | 1.341 | 99 | 99
4 | C[C@H]1CC[C@@H](C(=O)O)CN1C(=O)Cc1ccc(-c2cccnc2)cc1 [BnH12046, (3R,6S)-6-methyl-1-(2-(4-(pyridin-3-yl)phenyl)acetyl) piperidine-3-carboxylic acid] | excellent effects | 2.102 | 95 | 90
5 | C[C@H]1CC[C@@H](C(=O)O)CN1C(=O)Cc1ccc(-c2cnccn2)cc1 [BnH12047, (3R,6S)-6-methyl-1-(2-(4-(pyrazin-2-yl)phenyl)acetyl) piperidine-3-carboxylic acid] | – | 1.554 | 99 | 99
6 | C[C@H]1CC[C@@H](C(=O)O)CN1C(=O)Cc1ccc(-c2ncccn2)cc1 [BnH12048, (3R,6S)-6-methyl-1-(2-(4-(pyrimidin-2-yl)phenyl)acetyl) piperidine-3-carboxylic acid] | – | 1.071 | 95 | 80
7 | C[C@H]1CC[C@@H](C(=O)O)CN1C(=O)Cc1ccc(-c2nccn2C)cc1 [BnH12053, sodium (3R,6S)-6-methyl-1-(2-(4-(1-methyl-1H-imidazol-2-yl)phenyl)acetyl) piperidine-3-carboxylate] | – | 1.652 | 95 | 95
8 | C[C@H]1CC[C@@H](C(=O)O)CN1C(=O)Cc1ccc(-c2cnco2)cc1 [BnH12057, (3R,6S)-6-methyl-1-(2-(4-(oxazol-5-yl)phenyl)acetyl) piperidine-3-carboxylic acid] | excellent effects | 2.241 | 95 | 55
9 | C[C@H]1CC[C@@H](C(N)=O)CN1C(=O)Cc1ccc(-c2ncccn2)cc1 [BnH12058, (3R,6S)-6-methyl-1-(2-(4-(pyrimidin-2-yl)phenyl)acetyl) piperidine-3-carboxamide] | – | 1.54 | 99 | 90
10 | C[C@@H]1CC[C@H](C(=O)O)CN1C(=O)Cc1ccc(-c2cccnc2)cc1 [BnH12066, (3S,6R)-6-methyl-1-(2-(4-(pyridin-3-yl)phenyl)acetyl) piperidine-3-carboxylic acid] | – | 1.514 | 99 | 90
11 | C[C@@H]1CC[C@H](C(=O)O)CN1C(=O)Cc1ccc(-c2cnccn2)cc1 [BnH12067, (3S,6R)-6-methyl-1-(2-(4-(pyrazin-2-yl)phenyl)acetyl) piperidine-3-carboxylic acid] | excellent effects | 2.565 | 99 | 85
12 | C[C@@H]1CC[C@H](C(=O)O)CN1C(=O)Cc1ccc(-c2cncnc2)cc1 [BnH12071, (3S,6R)-6-methyl-1-(2-(4-(pyrimidin-5-yl)phenyl)acetyl) piperidine-3-carboxylic acid] | – | 1.799 | 80 | 75
13 | C[C@H]1CC[C@@H](C(=O)O)CN1C(=O)Cc1ccc(-c2cccc([N+](=O)[O-])c2)cc1 [BnH12072, (3R,6S)-6-methyl-1-(2-(3′-nitro-8 1,l′-biphenyl9-4-yl)acetyl) piperidine-3-carboxylic acid] | – | 1.822 | 90 | 80
14 | C[C@H]1CC[C@@H](C(=O)O)CN1C(=O)Cc1cccc(-c2ccccc2)c1 [BnH12078] | – | 1.017 | 90 | 75
15 | C[C@H]1CC[C@@H](C(=O)O)CN1C(=O)Cc1ccc(-c2ccc(C3CCCCC3)cc2)cc1 [BnH12085, (3R,6S)-1-(2-(4′-cyclohexyl-8 1,l′-biphenyl9-4-yl)acetyl)-6-methylpiperidine-3-carboxylic acid] | – | 1.557 | 30 | 0
16 | C[C@H]1CC[C@@H](C(=O)O)CN1C(=O)Cc1ccc(-c2ccc(N)cc2)cc1 [BnH12086, (3R,6S)-1-(2-(4′-amino-8 1,l′-biphenyl9-4-yl)acetyl)-6-methylpiperidine-3-carboxylic acid] | – | 1.753 | 80 | 70
17 | C[C@H]1CC[C@@H](C(=O)O)CN1C(=O)Cc1ccc(-c2cccc(N)c2)cc1 [BnH12088, (3R,6S)-1-(2-(3′-amino-8 1,l′-biphenyl9-4-yl)acetyl)-6-methylpiperidine-3-carboxylic acid] | – | 1.219 | 90 | 90
18 | C[C@H]1CC[C@@H](C(=O)O)CN1C(=O)Cc1ccc(-c2ccc(-c3cccnc3)cc2)cc1 [BnH12089, (3R,6S)-6-methyl-1-(2-(4'-(pyridin-3-yl)-[1,1'-biphenyl]-4-yl)acetyl)piperidine-3-carboxylic acid] | – | 1.409 | 65 | 55
19 | CCN(CC)c1ccc(-c2ccc(CC(=O)N3C[C@H](C(=O)O)CC[C@@H]3C)cc2)cc1 [BnH12090, (3R,6S)-1-(2-(4′-(diethylamino)-8 1,1′-biphenyl9-4-yl)acetyl)-6-methylpiperidine-3-carboxylic acid] | – | 1.698 | 85 | 30
